The values below come from patent US8546414B2, “Ion channel modulators and methods of use” (Vertex Pharmaceuticals Incorporated, priority 2004, dated 2013).

Common to all, as to format: cell-based
In one test the target is T1, NaV1.3 (Homo sapiens, UniProt Q9NY46).
T1 construct: expressed in transfected cells; host or cells: HEK293
Nature of the test: VIPR optical membrane potential assay with electrical stimulation, NaV1.3. Conditions: Table 9, NaV 1.3 receptors. The method in brief: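 HEK293 cells stably expressing NaV1.3, stained with CC2-DMPE (10 μM final) then DiSBAC2(3) with ABSC1, 30 min each at RT; compounds added with oxonol. Electrical stimulation for 3 s; 460/580 nm background-subtracted emission ratio Rf/Ri, normalised to tetracaine (positive) and untreated (negative) controls.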

In a further test the target is T2, CaV2.2 (Homo sapiens, UniProt Q00975).
T2 construct: expressed in transfected cells; host or cells: HEK293
Nature of the test: VIPR optical membrane potential assay with electrical stimulation, CaV2.2. Conditions: Table 9, CaV 2.2 receptors. The method in brief:
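HEK293 cells stably expressing CaV2.2 stained with CC2-DMPE/DiSBAC2(3) voltage-sensitive dyes (10 μM final CC2-DMPE, 30 min, RT), then compound added and cells electrically stimulated for 3-5 s. Read-out: background-subtracted 460/580 nm emission ratio; response R=Rf/Ri (post- vs pre-stimulus ratio); antagonism seen as reduced response.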

The target in the next test is NaV1.8 (Homo sapiens, UniProt Q9Y5Y9). Put plainly: VIPR optical membrane potential assay, NaV1.8 (other subtypes in an analogous mode). Conditions: Table 9, NaV 1.8 receptors. As to the method: Antagonist properties of test compounds were assessed as follows. Cells expressing the NaV of interest were placed into microtiter plates. After an incubation period, the cells were stained with fluorescent dyes sensitive to the transmembrane potential. The test compounds were added to the microtiter plate. The cells were stimulated with either chemical or electrical means to evoke a NaV dependent membrane potential change from unblocked channels, which was detected and measured with trans-membrane potential-sensitive dyes. Antagonists were detected as a decreased membrane potential response to the stimulus.
24 hours before the assay on VIPR, CHO cells endogenously expressing a NaV 1.2 type voltage-gated NaV are seeded in 96-well poly-lysine coated plates at 60,000 cells per well. […] Plates are incubated in the dark for 30 minutes at room temperature. • 4) While the cells are being stained with coumarin, a […] oxonol solution in BS#2 is prepared. […] As before, the residual volume should be 40 μL. • 6) Upon removing the bath, the cells are loaded with 80 μL of the DiSBAC2(3) solution, after which test compound, dissolved in DMSO, is added to achieve the desired test concentration to each well from the drug addition plate and mixed thoroughly. The volume in the well should be roughly 121 μL. The cells are then incubated for 20-30 minutes. • 7) Once the incubation is complete, the cells are ready to be assayed on VIPR® with a sodium addback protocol. 120 μL of Bath solution #1 is added to stimulate the NaV dependent depolarization. […] tetracaine was used as an antagonist positive control for block of the NaV channel. Analysis of VIPR® Data:
The following is an example of how NaV1.3 inhibition activity is measured using the optical membrane potential method#2. Other subtypes are performed in an analogous mode in a cell line expressing the NaV of interest.

The structures appear in SMILES notation.

T2 sequence (Q00975 whole entry): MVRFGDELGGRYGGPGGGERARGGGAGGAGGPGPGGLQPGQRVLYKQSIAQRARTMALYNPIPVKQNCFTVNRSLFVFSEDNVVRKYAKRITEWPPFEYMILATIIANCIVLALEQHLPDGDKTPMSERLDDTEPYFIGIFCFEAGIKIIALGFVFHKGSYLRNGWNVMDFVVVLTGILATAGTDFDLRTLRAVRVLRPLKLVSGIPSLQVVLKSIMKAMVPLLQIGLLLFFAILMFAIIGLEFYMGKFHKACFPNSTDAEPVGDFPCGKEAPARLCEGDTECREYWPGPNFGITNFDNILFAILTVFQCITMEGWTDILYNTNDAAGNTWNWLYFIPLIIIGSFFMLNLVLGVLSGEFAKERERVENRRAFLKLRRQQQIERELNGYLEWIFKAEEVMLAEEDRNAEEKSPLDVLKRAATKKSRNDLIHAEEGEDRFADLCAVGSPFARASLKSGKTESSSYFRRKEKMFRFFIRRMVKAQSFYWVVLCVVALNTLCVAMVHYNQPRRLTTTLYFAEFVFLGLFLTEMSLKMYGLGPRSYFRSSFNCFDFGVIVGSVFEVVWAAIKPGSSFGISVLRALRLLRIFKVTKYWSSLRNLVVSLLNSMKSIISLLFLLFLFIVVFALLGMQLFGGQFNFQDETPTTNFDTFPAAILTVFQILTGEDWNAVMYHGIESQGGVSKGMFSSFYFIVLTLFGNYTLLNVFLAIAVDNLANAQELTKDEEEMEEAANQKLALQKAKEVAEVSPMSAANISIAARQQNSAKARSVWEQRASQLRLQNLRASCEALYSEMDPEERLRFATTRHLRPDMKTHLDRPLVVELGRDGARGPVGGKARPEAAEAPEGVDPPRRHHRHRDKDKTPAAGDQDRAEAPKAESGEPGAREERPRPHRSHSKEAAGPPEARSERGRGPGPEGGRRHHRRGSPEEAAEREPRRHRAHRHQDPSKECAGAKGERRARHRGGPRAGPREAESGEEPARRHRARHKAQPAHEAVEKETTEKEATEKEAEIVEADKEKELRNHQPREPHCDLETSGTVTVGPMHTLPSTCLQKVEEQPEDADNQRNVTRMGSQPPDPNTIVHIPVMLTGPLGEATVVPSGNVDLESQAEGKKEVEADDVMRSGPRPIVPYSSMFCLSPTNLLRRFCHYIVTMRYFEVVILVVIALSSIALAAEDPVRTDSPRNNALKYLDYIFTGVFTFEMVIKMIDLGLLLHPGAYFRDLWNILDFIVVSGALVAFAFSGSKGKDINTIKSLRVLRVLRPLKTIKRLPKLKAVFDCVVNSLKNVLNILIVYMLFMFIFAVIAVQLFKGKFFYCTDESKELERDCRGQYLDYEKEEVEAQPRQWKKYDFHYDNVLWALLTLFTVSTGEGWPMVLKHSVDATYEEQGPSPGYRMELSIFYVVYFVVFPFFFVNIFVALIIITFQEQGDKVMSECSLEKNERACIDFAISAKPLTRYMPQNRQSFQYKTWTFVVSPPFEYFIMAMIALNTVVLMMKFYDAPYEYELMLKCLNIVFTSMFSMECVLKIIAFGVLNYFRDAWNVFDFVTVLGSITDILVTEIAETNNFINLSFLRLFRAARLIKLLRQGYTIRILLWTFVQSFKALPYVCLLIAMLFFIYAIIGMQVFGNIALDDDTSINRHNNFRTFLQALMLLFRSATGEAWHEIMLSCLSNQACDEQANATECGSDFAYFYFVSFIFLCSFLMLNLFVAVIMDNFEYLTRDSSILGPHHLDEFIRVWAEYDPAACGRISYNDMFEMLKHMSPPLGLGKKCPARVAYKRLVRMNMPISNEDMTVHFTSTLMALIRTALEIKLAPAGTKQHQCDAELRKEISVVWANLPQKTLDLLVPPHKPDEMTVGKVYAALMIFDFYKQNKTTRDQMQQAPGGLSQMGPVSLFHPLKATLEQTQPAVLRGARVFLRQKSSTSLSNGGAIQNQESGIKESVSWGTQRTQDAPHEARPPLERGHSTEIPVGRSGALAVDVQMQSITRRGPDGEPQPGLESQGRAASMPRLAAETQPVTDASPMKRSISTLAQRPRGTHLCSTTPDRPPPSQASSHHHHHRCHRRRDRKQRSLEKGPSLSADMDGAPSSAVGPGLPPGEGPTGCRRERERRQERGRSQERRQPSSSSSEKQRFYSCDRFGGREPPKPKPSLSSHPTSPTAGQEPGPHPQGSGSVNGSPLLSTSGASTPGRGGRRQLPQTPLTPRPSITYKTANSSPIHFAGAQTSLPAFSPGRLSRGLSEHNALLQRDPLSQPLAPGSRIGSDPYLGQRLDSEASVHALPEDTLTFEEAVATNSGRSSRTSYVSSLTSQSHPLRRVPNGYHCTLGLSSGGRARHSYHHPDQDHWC
T2 sequence (P54284 whole entry partner): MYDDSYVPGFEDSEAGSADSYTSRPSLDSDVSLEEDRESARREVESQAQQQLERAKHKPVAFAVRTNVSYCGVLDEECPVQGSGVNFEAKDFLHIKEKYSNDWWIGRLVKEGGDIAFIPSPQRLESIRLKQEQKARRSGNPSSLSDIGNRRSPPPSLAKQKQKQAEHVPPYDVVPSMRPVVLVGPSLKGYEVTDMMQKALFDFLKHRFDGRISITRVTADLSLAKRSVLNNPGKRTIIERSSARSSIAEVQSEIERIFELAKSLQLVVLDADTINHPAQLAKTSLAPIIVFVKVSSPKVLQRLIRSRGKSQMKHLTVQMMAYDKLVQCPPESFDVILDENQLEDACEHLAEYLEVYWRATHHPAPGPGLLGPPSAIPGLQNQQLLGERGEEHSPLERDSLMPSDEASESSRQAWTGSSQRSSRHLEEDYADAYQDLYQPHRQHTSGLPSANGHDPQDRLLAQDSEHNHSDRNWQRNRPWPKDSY
T2 sequence (P54289 25-956 partner limits assumed): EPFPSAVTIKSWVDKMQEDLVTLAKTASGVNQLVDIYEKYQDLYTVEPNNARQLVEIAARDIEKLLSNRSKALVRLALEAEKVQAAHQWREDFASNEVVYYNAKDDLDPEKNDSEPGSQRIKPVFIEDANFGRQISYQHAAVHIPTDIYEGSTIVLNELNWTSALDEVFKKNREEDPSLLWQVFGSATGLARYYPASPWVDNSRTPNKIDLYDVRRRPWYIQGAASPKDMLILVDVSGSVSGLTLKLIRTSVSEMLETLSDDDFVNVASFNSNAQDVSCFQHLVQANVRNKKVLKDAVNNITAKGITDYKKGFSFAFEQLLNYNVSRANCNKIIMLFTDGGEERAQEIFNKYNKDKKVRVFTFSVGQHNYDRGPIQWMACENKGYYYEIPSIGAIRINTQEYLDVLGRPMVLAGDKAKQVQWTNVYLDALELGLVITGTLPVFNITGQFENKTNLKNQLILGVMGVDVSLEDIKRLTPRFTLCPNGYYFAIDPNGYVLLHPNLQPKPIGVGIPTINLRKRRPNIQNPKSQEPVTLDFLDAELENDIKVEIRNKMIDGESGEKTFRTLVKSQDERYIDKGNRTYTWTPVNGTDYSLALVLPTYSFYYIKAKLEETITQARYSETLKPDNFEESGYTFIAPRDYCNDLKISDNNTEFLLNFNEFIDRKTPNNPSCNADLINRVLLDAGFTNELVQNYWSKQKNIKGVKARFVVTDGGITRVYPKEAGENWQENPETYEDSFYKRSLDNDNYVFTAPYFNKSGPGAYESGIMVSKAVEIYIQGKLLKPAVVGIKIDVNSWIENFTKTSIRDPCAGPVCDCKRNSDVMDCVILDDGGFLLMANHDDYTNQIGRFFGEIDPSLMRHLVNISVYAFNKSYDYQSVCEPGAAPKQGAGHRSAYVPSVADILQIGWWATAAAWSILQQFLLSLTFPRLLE
T2 sequence (P54289 957-1103 partner limits assumed): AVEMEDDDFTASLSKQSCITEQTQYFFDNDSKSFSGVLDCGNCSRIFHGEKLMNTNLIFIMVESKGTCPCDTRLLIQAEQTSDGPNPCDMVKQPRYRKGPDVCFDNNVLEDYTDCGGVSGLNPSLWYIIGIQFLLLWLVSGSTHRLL

Turning to `O=C(c1cnc(N2CCOCC2)nc1-c1ccccc1F)N(Cc1ccc(F)cc1)C1CC1` [compound 128], the IC50 – broadly, the midpoint of a concentration-inhibition curve – was 2 to 10 µM at NaV1.3, 2 to 10 µM at CaV2.2 and greater than 10 µM on NaV1.8.
In the case of `COc1ccc(CN(C(=O)c2cnc(N3CCCCC3)nc2-c2ccccc2Cl)C2CC2)cc1` [compound 36], the IC50 is 2 to 10 µM at NaV1.3, 2 to 10 µM against CaV2.2 and greater than 10 µM against NaV1.8.
On to `CC(C)N(C(=O)c1cnc(N2CCOCC2)nc1-c1ccccc1F)C1CCSC1` (stereo not drawn) [compound 172], for which the IC50 at NaV1.3, against CaV2.2 and against NaV1.8 was greater than 10 µM each time.
Take `CN1CCN(c2ncc(C(=O)N(Cc3ccc(C(C)(C)C)cc3)C3CC3)c(-c3ccccc3F)n2)CC1` [compound 176]: the figures for the IC50 against NaV1.3, against CaV2.2 and against NaV1.8 were greater than 10 µM, 2 to 10 µM and greater than 10 µM, respectively.
Take `COc1ccc(CN(C(=O)c2cnc(N3CCC4CCCCC4C3)nc2-c2ccccc2F)C2CC2)cc1` (stereo not drawn) [compound 184]: the 50% inhibitory concentration (IC50) against NaV1.3 is greater than 10 µM; at CaV2.2, 2 to 10 µM; against NaV1.8, greater than 10 µM.
Regarding `CC(C)N(C(=O)c1cnc(N2CCCCC2)nc1-c1ccccc1Cl)C1CCSC1` (stereo not drawn) [compound 155], the results for the IC50 at NaV1.3, at CaV2.2 and against NaV1.8 were greater than 10 µM, 2 to 10 µM and greater than 10 µM, respectively.
Turning to `CC(C)N(Cc1ccccc1)C(=O)c1cnc(N2Cc3ccccc3C2)nc1-c1ccccc1F` [compound 130], the IC50 against NaV1.3 was 2 to 10 µM; against CaV2.2, 2 to 10 µM; on NaV1.8, greater than 10 µM.
For the compound `COc1ccc(N(C(=O)c2cnc(N3CCOCC3)nc2-c2ccccc2F)C(C)C)cc1` [compound 185], the IC50 was greater than 10 µM against NaV1.3, 2 to 10 µM on CaV2.2 and greater than 10 µM against NaV1.8.
As for `COc1ccc(N(C(=O)c2cnc(N3CCC4CCCCC4C3)nc2-c2ccccc2F)C(C)C)cc1` (stereo not drawn) [compound 12], the IC50 is greater than 10 µM against NaV1.3, less than 2 µM on CaV2.2 and greater than 10 µM on NaV1.8.
`COc1cccc(N(C(=O)c2cnc(N3CCCCC3)nc2-c2ccccc2Cl)C2CCC2)c1` [compound 27]: the IC50 on NaV1.3 is 2 to 10 µM; against CaV2.2, 2 to 10 µM; against NaV1.8, greater than 10 µM.
As for `O=C(NC1Cc2ccccc2C1)c1cnc(N2CCOCC2)nc1-c1ccccc1F` [compound 33], the IC50 against NaV1.3, on CaV2.2 and on NaV1.8 was greater than 10 µM each time.
On to `O=C(c1cnc(N2CCOCC2)nc1-c1ccccc1F)N(Cc1ccc2c(c1)CCO2)C1CC1` [compound 53], for which the figures for the IC50 against NaV1.3, at CaV2.2 and on NaV1.8 were 2 to 10 µM, 2 to 10 µM and greater than 10 µM, respectively.
Turning to `O=C(NC1CC1)c1cnc(N2CCOCC2)nc1-c1ccccc1F` [compound 79], the IC50 against NaV1.3, at CaV2.2 and at NaV1.8 was greater than 10 µM throughout.
Turning to `CC1Cc2ccccc2N1C(=O)c1cnc(N2CCOCC2)nc1-c1ccccc1F` (stereo not drawn) [compound 150], the IC50 against NaV1.3, against CaV2.2 and against NaV1.8 was greater than 10 µM each time.
On to `O=C(NC1CCCC1)c1cnc(N2CCOCC2)nc1-c1ccccc1F` [compound 19], for which the IC50 at NaV1.3, on CaV2.2 and at NaV1.8 was greater than 10 µM throughout.
On to `COc1ccc(CN(C(=O)c2cnc(N3CCSCC3)nc2-c2ccccc2F)C2CC2)cc1` [compound 164], for which the IC50 against NaV1.3, at CaV2.2 and against NaV1.8 was 2 to 10 µM in each case.
For the compound `COc1cccc(CN(C(=O)c2c(C)nc(N3CCOCC3)nc2-c2ccccc2F)C(C)C)c1` [compound 186], the IC50 against NaV1.3 is 2 to 10 µM; on CaV2.2, 2 to 10 µM; on NaV1.8, greater than 10 µM.
Consider `COc1cccc(CN(C(=O)c2cnc(N3CCc4ccccc4C3)nc2-c2ccccc2F)C(C)C)c1` [compound 22], for which the IC50 against NaV1.3 was 2 to 10 µM; against CaV2.2, less than 2 µM; against NaV1.8 it was greater than 10 µM.
On to `COc1cccc(N(C(=O)c2cnc(N3CCOCC3)nc2-c2ccccc2F)C2CC2)c1` [compound 183], for which the IC50 at NaV1.3, on CaV2.2 and against NaV1.8 was greater than 10 µM each time.
As to `Cc1nc(N2CCOCC2)nc(-c2ccccc2F)c1C(=O)N(Cc1ccccc1)C(C)C` [compound 13], the IC50 against NaV1.3 is greater than 10 µM; on CaV2.2, 2 to 10 µM; on NaV1.8, greater than 10 µM.
As for `CC(C)N(Cc1ccccc1)C(=O)c1cnc(N2CCC(O)C2)nc1-c1ccccc1F` (stereo not drawn) [compound 45], the IC50 on NaV1.3, at CaV2.2 and against NaV1.8 was greater than 10 µM each time.
Take `CC(C)N(Cc1ccccc1)C(=O)c1cnc(NCCc2ccc(F)cc2)nc1-c1ccccc1F` [compound 118]: the IC50 at NaV1.3 was 2 to 10 µM; against CaV2.2 it was less than 2 µM; against NaV1.8 it was greater than 10 µM.
In the same order, the values of `CC(C)N(Cc1ccccc1)C(=O)c1cnc(Nc2ccc3c(c2)OCO3)nc1-c1ccccc1F` [compound 51] are 2 to 10 µM, 2 to 10 µM and greater than 10 µM.
For `Cc1nc(N2CCOCC2)nc(-c2ccccc2F)c1C(=O)N(c1ccccc1)C(C)C` [compound 25], the IC50 against NaV1.3, at CaV2.2 and against NaV1.8 was greater than 10 µM each time.
On to `COc1cccc(N(C(=O)c2cnc(N3CCOCC3)nc2-c2ccccc2F)C(C)C)c1` [compound 160], for which the IC50 on NaV1.3, at CaV2.2 and against NaV1.8 was greater than 10 µM throughout.
As to `COc1cccc(N(C(=O)c2cnc(N3CCCCC3)nc2-c2ccccc2F)C2CCOCC2)c1` [compound 35], the IC50 at NaV1.3, at CaV2.2 and against NaV1.8 was greater than 10 µM each time.
With `CC(C)N(C(=O)c1cnc(N2CCCCC2)nc1-c1ccccc1F)c1cccc(N(C)C)c1` [compound 152], the IC50 on NaV1.3 was 2 to 10 µM; at CaV2.2, 2 to 10 µM; against NaV1.8 it was greater than 10 µM.
Take `O=C(c1cnc(N2CCSCC2)nc1-c1ccccc1F)N(Cc1ccccc1)C1CCC1` [compound 80]: the IC50 against NaV1.3 is 2 to 10 µM; on CaV2.2, 2 to 10 µM; against NaV1.8, greater than 10 µM.
For the compound `N#CCCN(Cc1ccccc1)C(=O)c1cnc(N2CCOCC2)nc1-c1ccccc1F` [compound 75], the IC50 against NaV1.3, on CaV2.2 and on NaV1.8 was greater than 10 µM throughout.
In the case of `CC(C)N(Cc1ccc(N2CCCC2)cc1)C(=O)c1cnc(N2CCC3CCCCC3C2)nc1-c1ccccc1F` (stereo not drawn) [compound 137], the results for the IC50 against NaV1.3, at CaV2.2 and on NaV1.8 were greater than 10 µM, less than 2 µM and greater than 10 µM, respectively.
Turning to `CCC(=O)C1(c2ccccc2)CCN(C(=O)c2cnc(N3CCOCC3)nc2-c2ccccc2F)CC1` [compound 57], the IC50 against NaV1.3, at CaV2.2 and at NaV1.8 was greater than 10 µM throughout.
As for `CCC(COC)N(Cc1ccccc1)C(=O)c1cnc(N2CCSCC2)nc1-c1ccccc1F` (stereo not drawn) [compound 81], the IC50 at NaV1.3 is 2 to 10 µM; against CaV2.2, 2 to 10 µM; on NaV1.8, greater than 10 µM.
In the case of `CC(C)N(C(=O)c1cnc(N2CCOCC2)nc1-c1ccccc1F)c1cccc(N(C)C)c1` [compound 111], the IC50 on NaV1.3, against CaV2.2 and on NaV1.8 was greater than 10 µM in each case.
In the case of `CCC(COC)N(Cc1ccccc1)C(=O)c1cnc(N2CCOCC2)nc1-c1ccccc1F` (stereo not drawn) [compound 113], the IC50 on NaV1.3 is 2 to 10 µM; on CaV2.2, greater than 10 µM; on NaV1.8 it was greater than 10 µM.
For `CC(C)N(C(=O)c1cnc(N2CCCCC2)nc1-c1ccccc1F)c1ccc2c(c1)OCO2` [compound 70], the results for the IC50 against NaV1.3, on CaV2.2 and on NaV1.8 were 2 to 10 µM, less than 2 µM and greater than 10 µM, respectively.
With `Cc1cccc(CN(C(=O)c2cnc(N3CCOCC3)nc2-c2ccccc2F)C2CC2)c1` [compound 163], the IC50 at NaV1.3 was greater than 10 µM; against CaV2.2, 2 to 10 µM; against NaV1.8 it was greater than 10 µM.
For the compound `CC(C)N(C(=O)c1cnc(N2CCCCC2)nc1-c1ccccc1F)C1CCSC1` (stereo not drawn) [compound 149], the IC50 against NaV1.3, at CaV2.2 and on NaV1.8 was greater than 10 µM in each case.
For `CC(C)N(Cc1ccccc1)C(=O)c1cnc(N2CCOCC2)nc1-c1ccccc1Cl` [compound 194, N-benzyl-4-(2-chlorophenyl)-N-isopropyl-2-morpholinopyrimidine-5-carboxamide], the values for the IC50 on NaV1.3, against CaV2.2 and at NaV1.8 were 2 to 10 µM, less than 2 µM and 2 to 10 µM, respectively.
